These results are taken from BindingDB's records for doi:10.1016/s0006-2952(96)00656-9 (Institute of Parasitology of Mcgill University, 1997).

The data set deals with ATP-dependent translocase ABCB1 (Homo sapiens, UniProt P08183). The data set is described as follows: TP_TRANSPORTER: binding in plasma membranes from CEM/VLB1.0 cells.

Molecules are shown by their SMILES. pKd: −log10 of the molar value.

Chain of ATP-dependent translocase ABCB1 (P08183 whole entry): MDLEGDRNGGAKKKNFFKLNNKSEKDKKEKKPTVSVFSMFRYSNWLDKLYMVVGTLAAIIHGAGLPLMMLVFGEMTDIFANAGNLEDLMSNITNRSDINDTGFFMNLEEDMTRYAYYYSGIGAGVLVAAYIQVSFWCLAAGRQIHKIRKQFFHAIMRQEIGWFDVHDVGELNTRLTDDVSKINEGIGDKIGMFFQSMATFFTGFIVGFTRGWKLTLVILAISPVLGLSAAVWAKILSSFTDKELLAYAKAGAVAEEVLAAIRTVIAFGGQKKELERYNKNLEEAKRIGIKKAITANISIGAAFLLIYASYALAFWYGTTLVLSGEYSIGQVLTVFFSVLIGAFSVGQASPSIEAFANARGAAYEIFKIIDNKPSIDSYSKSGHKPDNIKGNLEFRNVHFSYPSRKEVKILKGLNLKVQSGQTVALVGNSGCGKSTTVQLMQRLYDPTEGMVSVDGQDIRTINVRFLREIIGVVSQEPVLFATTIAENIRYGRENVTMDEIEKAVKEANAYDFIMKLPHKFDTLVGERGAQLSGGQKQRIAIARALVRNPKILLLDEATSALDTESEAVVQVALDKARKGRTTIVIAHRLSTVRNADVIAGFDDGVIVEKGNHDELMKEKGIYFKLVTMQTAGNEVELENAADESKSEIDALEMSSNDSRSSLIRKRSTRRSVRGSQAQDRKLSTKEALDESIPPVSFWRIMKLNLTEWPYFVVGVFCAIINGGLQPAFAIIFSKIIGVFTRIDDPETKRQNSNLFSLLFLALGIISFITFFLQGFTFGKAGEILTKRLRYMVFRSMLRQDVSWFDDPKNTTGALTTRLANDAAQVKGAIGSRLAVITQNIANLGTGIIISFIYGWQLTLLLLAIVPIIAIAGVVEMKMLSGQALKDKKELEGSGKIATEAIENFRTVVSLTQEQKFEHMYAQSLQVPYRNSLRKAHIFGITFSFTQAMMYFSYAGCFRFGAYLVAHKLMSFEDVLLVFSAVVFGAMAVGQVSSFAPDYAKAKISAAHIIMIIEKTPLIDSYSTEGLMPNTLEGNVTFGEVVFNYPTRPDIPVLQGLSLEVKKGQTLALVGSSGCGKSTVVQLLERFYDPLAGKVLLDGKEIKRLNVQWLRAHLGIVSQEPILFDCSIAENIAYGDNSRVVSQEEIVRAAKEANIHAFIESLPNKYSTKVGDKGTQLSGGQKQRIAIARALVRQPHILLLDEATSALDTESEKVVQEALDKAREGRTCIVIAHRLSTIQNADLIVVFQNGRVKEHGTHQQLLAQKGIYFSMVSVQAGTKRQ

What is called pKd is the negative decadic logarithm of the Kd, by convention in mol/L. Lower therefore signals a high Kd. Regarding `CC[C@H](C)[C@H]1O[C@]2(CC[C@@H]1C)C[C@@H]1C[C@@H](C/C=C(\C)[C@@H](O[C@H]3C[C@H](OC)[C@@H](O[C@H]4C[C@H](OC)[C@@H](O)[C@H](C)O4)[C@H](C)O3)[C@@H](C)/C=C/C=C3\CO[C@@H]4[C@H](O)C(C)=C[C@@H](C(=O)O1)[C@]34O)O2` [ABAMECTIN], the pKd is 7.96.
